Assay [1] concerns Pgp. Kind of assay: Western blotting of Pgp protein levels in ADX cells (antibody C219). It counts as cell-based, Chinese hamster. To be noted: 10 μM (FIG. 4). The source says:
(§1) Protein levels were monitored by Western blotting, using monoclonal antibodies specific to Pgp (e.g., C219).

Assay [2] concerns Pgp. In words: Western blotting of Pgp protein levels in BE(2)-C cells (antibody C219). To be noted: 10 μM (FIG. 3). It counts as cell-based. Here is the method: FIG. 3. depicts Western Blot showing time-dependent reduction of Pgp expression in BE(2)—C cells following 10 μM (+)pentazocine treatment.
as §1

Another assay deals with Pgp mRNA. Kind of assay: RT-PCR with 32P-ATP of Pgp mRNA levels in BE(2)-C neuroblastoma cell line. It counts as cell-based. Also on record: reduction in Pgp mRNA levels, dose dependence: dose or concentration left out as unconfirmed. To be noted: BE(2)-C cells. Here is the method:
(§2) RT-PCR was performed and [^32P]ATP was incorporated into the PCR reaction. Radioactivity was measured following gel separation of PCR product.
as §2
Tests were performed in a BE(2)—C neuroblastoma cell line. This cell line was used to test the ability of (+)pentazocine to reduce levels of Pgp mRNA and corresponding protein expression in a dose-dependent manner. Pgp levels were tested at the mRNA level by reverse-transcription polymerase chain reaction (RT-PCR) in the presence of ^32P-ATP. Incorporation of the radiolabeled nucleotide was measured following electrophoresis of the PCR product.

The next assay has as its system mdr-1 gene. To be noted: human neuroblastoma cells; cited from earlier work.

Consider `CC(C)=CCN1CCC2(C)c3cc(O)ccc3CC1C2C` (single isomer, unassigned; (+)) [(+)pentazocine], for which the “time of maximal decrease of Pgp protein levels” value with Pgp [1] and in the assay on Pgp [2] was 12 to 18 h each time. Moreover, the “decrease in Pgp mRNA” value with Pgp mRNA (1 μM) is “two-fold decrease”. Besides, in the assay with Pgp mRNA (10 μM (FIG. 1)), the “time of maximal reduction in Pgp mRNA levels post-treatment” value lay within 12 to 18 h. Further, the “reduction in Pgp mRNA levels, dose dependence” value in the assay on Pgp mRNA (concentrations (FIG. 2)) is “dose-dependent”.
In the case of `Br.Br.CN(CCc1ccc(Cl)c(Cl)c1)[C@H]1CCCC[C@H]1N1CCCC1` [BD 737], the “effect on expression of the mdr-1 gene” value with mdr-1 gene is listed as “no significant effect”.

The record behind these values is patent US20040224907A1, “Compositions and methods for reversal of drug resistance” (priority 2001, published 2004).
